Test results reported in PMC11651181, “Discovery of 6α-Thiazolylcarboxamidonaltrexamine Derivative (NTZ) as a Potent and Central Nervous System Penetrant Opioid Receptor Modulator with Drug-like Properties for Potential Treatment of Opioid Use Disorder” (ACS Pharmacology & Translational Science, 2024).
“Also recorded” adds a separate entry of the source. Where a name gives a salt, the structure may show the parent alone. Read-outs that look alike come from different tables or passages of the source.

Key:
μ opioid receptor (MOR) = target: T1, μ opioid receptor (MOR) (Mus musculus, UniProt P42866); test: Competitive radioligand binding assay, MOR
T1 construct: expressed in transfected cells; host or cells: CHO (mMOR-CHO), membrane preparation
Protocol: (§1) The competition binding assay was performed using monoclonal mouse opioid receptors expressed in CHO cell lines (monoclonal human δ opioid receptor was used for the DOR assay).
(§2) The bound radioligand was separated using a Brandel harvester. Specific binding to the MOR, KOR, and DOR was calculated by subtracting the binding observed in the presence of 5 μM naltrexone, U50488, and SNC80, respectively, from the binding in their absence. Relative affinity values (IC50) were determined by fitting displacement binding inhibition data to a nonlinear regression model using GraphPad Prism 8.0 (GraphPad Software, San Diego, CA). The % inhibition was calculated using the formula: % inhibition = 100% - [(binding with the tested compound - nonspecific binding)/specific binding] × 100%. The IC50 values were converted to Ki values using the Cheng-Prusoff equation: Ki = IC50/ [1 + ([L*]/KD)], where [L*] is the concentration of the radioligand and KD is the KD of the radioligand.[68]

MOR [1] = target: T2, MOR (Mus musculus, UniProt P42866); test: MOR [35S]GTPγS functional assay; assay type: biochemical; details: for Emax: read-out: MOR [35S]GTPγS Binding %Emax of DAMGO, relative to 3 μM DAMGO, mean ± SEM
T2 construct: expressed in transfected cells; host or cells: CHO (MOR-CHO), membrane preparation
Protocol: (§3) The [^35S]GTPγS functional assay was used to assess the efficacy of compounds at the MOR, KOR, and DOR. In this assay, 10 μg of MOR-CHO/KOR-CHO/DOR-CHO membrane protein was incubated in 500 μL of TME with 100 mM NaCl, 20 μM GDP, 0.1 nM [^35S]GTPγS, and varying concentrations of the compound for 1.5 h in a 30 °C water bath. Protein concentration was adjusted using the Bradford protein assay. […] After incubation, bound radioactivity was separated by filtration through GF/B glass fiber filters and measured by liquid scintillation counting. All assays were performed in duplicate and repeated at least three times. Net stimulated [35S]GTPγS binding was calculated as agonist-stimulated minus basal binding.

δ opioid receptor (DOR) = target: T3, δ opioid receptor (DOR) (Homo sapiens, UniProt P41143); test: Competitive radioligand binding assay, DOR
T3 construct: expressed in transfected cells; host or cells: CHO (hDOR-CHO), membrane preparation
Protocol: as §1, §2

Swiss Webster mice [2] = test: Warm-water tail immersion assay, agonism (acute antinociception); details: single dose of 10 mg/kg s.c., n = 6, vs 10 mg/kg morphine
κ opioid receptor (KOR) = target: T4, κ opioid receptor (KOR) (Mus musculus, UniProt P33534); test: Competitive radioligand binding assay, KOR; details: for Selectivity κ/μ: ratio of Ki values
T4 construct: expressed in transfected cells; host or cells: CHO (mKOR-CHO), membrane preparation
Protocol: as §1, §2

KOR = target: T5, KOR (Mus musculus, UniProt P33534); test: KOR [35S]GTPγS functional assay; assay type: biochemical
T5 construct: expressed in transfected cells; host or cells: CHO (KOR-CHO), membrane preparation
Protocol: as §3

MOR [3] = target: T2, MOR; test: MOR calcium flux assay in Gαqi5-transfected mMOR-CHO cells; assay type: cell-based
morphine-pelleted mice = test: In vivo opioid withdrawal studies in morphine-pelleted mice; parameters: species or system mouse; details: for Jumps, mean count / Paw tremors, mean count / Wet dog shake, mean count: 5 mg/kg s.c., counted over 20 min; for Precipitated withdrawal symptoms, in words: s.c.
Protocol: Swiss Webster mice (six males per group, weighing 25–35 g and aged 6–8 weeks) were used. Following a previously established protocol,[20] a 75 mg morphine pellet was implanted subcutaneously into the back of each mouse, and they were allowed to recover in their home cages. Prior to testing, the mice were habituated for 30 min in an open-topped, clear Plexiglas observation chamber (26 × 26 × 26 cm^3) with lines marking the floor into quadrants. […]. Withdrawal symptoms began within 3 min of antagonist administration. Escape jumps, paw tremors, and wet dog shakes were recorded by counting their occurrences over a 20 min period for each mouse. Results are expressed as the mean ± SEM.

Swiss Webster mice [4] = test: Warm-water tail immersion assay, antagonism of morphine-induced antinociception
DOR = target: T6, DOR (Homo sapiens, UniProt P41143); test: DOR [35S]GTPγS functional assay; assay type: biochemical
T6 construct: expressed in transfected cells; host or cells: CHO (DOR-CHO), membrane preparation
Protocol: as §3

GI-tract motility = test system: GI-tract motility; parameters: method as in PMID 22683223; details: cited from earlier work
Swiss Webster mice [5] = details: cited from earlier work; for %MPE in single dose antagonism assay: in the presence of morphine; for AD50 (95% CL) for counteracting morphine-induced antinociception: mice
Swiss Webster mice [6] = test system: Swiss Webster mice; parameters: method as in PMID 35255685; details: warm-water tail immersion; cited from earlier work

| SMILES | Ki (μ opioid receptor (MOR)) | EC50 (MOR [1]) | Emax (MOR [1]) | Ki (δ opioid receptor (DOR)) | Ki (κ opioid receptor (KOR)) | Selectivity κ/μ (κ opioid receptor (KOR)) | IC50 (MOR [3]) | Jumps, mean count (morphine-pelleted mice) | Paw tremors, mean count (morphine-pelleted mice) | Wet dog shake, mean count (morphine-pelleted mice) | Precipitated withdrawal symptoms, in words (morphine-pelleted mice) | %MPE in single dose antagonism assay (Swiss Webster mice [5]) | AD50 (95% CL) for counteracting morphine-induced antinociception (Swiss Webster mice [5]) | also measured |
| --- | --- | --- | --- | --- | --- | --- | --- | --- | --- | --- | --- | --- | --- | --- |
| O=C(N[C@H]1CC[C@@]2(O)[C@H]3Cc4ccc(O)c5c4[C@@]2(CCN3CC2CC2)[C@H]1O5)c1ccns1 [Compound 1, 17-Cyclopropylmethyl-3,14β-dihydroxy-4,5α-epoxy-6α-(5′-isothiazolylcarboxamido)-morphinan hydrochloride] | 0.51 ± 0.08 nM | 4.93 ± 0.8 nM | 15.6 ± 1.11% | 14.3 ± 0.66 nM | 1.81 ± 0.18 nM | 4 |  |  |  |  |  |  |  | Selectivity δ/μ (δ opioid receptor (DOR); ratio of Ki values): 28; Antinociceptive effect (MPE) compared to morphine, in words (Swiss Webster mice [2]): significantly lower than that of morphine |
| O=C(N[C@@H]1CC[C@@]2(O)[C@H]3Cc4ccc(O)c5c4[C@@]2(CCN3CC2CC2)[C@H]1O5)c1nccs1 [Compound 14, 17-Cyclopropylmethyl-3,14β-dihydroxy-4,5α-epoxy-6β-(2′-thiazolylcarboxamido)-morphinan hydrochloride] | 0.3 ± 0.04 nM | 0.56 ± 0.2 nM | 6.06 ± 0.52% | 117 ± 23.6 nM | 0.75 ± 0.08 nM | 2 | 12.4 ± 1.18 nM | 58.8 | 45.7 | 17.7 | fewer wet dog shakes and paw tremors at all testing doses than 1 mg/kg NLX |  |  | EC50 (KOR): 9.67 ± 1.81 nM; Emax (KOR; relative to 3 μM U50488H, mean ± SEM, read-out: KOR [35S]GTPγS binding % Emax of U50488H): 39.8 ± 2.82%; Agonistic activity in increasing intracellular calcium, in words (MOR [3]; compared to full MOR agonist DAMGO): no apparent agonism; also recorded: none of them showed any significant agonistic activity; AD50 (95% CL) for counteracting morphine-induced antinociception (Swiss Webster mice [4]; mice, s.c., given 5 min before morphine): 0.23 (0.04–1.37) mg/kg; Antagonism of morphine's antinociception, in words (Swiss Webster mice [4]; single dose of 10 mg/kg s.c. in the presence of morphine (10 mg/kg), n = 6): significantly antagonized; EC50 (DOR): 44 ± 6.82 nM; Emax (DOR; relative to 3 μM SNC80, mean ± SEM, read-out: DOR [35S]GTPγS binding % Emax of SNC80): 25.9 ± 0.4% |
| O=C(N[C@@H]1CC[C@@]2(O)[C@H]3Cc4ccc(O)c5c4[C@@]2(CCN3CC2CC2)[C@H]1O5)c1ccncc1 [NAP, 17-Cyclopropylmethyl-3,14β-Dihydroxy-4,5α-Epoxy-6β-[(4′-Pyridyl)Carboxamido]Morphinan] |  |  |  |  |  |  |  |  |  |  |  |  |  | ED50 in gastrointestinal (GI)-tract motility assay (GI-tract motility): 8.8 µg/kg |
| O=C(N[C@H]1CC[C@@]2(O)[C@H]3Cc4ccc(O)c5c4[C@@]2(CCN3CC2CC2)[C@H]1O5)c1cccs1 [NAT, reference compound] |  |  |  |  |  |  | 42.1 ± 4.51 nM | 45.8 | 29.2 | 14.5 | Significant withdrawal symptoms | 2.1 ± 1.7% | 0.42 (0.21–0.82) mg/kg | %MPE in single dose agonism assay (Swiss Webster mice [6]): 15.2 ± 8.8% |
| C=CCN1CC[C@]23c4c5ccc(O)c4O[C@H]2C(=O)CC[C@@]3(O)[C@H]1C5 [NLX, naloxone] |  |  |  |  |  |  |  |  |  |  | precipitated significant withdrawal symptoms | 2.9 ± 1.3% | 0.05 (0.03–0.09) mg/kg |  |
